The record followed here is patent US9382254B2, “Compounds and pharmaceutical compositions thereof for the treatment of cystic fibrosis” (Galapagos NV, priority 2013, dated 2016).

In experiment [1] the target is T1, CFTR ΔF508 mutant (Homo sapiens, UniProt P13569, DEL508-508).
T1 construct: expressed in transfected cells; host or cells: CFBE41o- (adenoviral transduction)
The experiment in a line: YFP-halide influx assay for the CFTR-ΔF508 mutation (384 well, FDSS/μCell). It counts as cell-based. To be noted: CFBE41o- cells, CFTR-ΔF508, 1×D-PBS, fluorescence after 36 seconds. The essentials: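 Potentiator read-out as 1−F/F0, F taken 36 s after iodide addition, EC50 fitted against compound concentration. Cells: CFBE41o- expressing ΔF508 CFTR plus halide-sensitive YFP via adenovirus, rescued by 27 °C for 24 h or 24 h modulator at 37 °C.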

Experiment [2] has as its target T2, CFTR G551D mutant (Homo sapiens, UniProt P13569, G551D).
T2 construct: expressed in transfected cells; host or cells: HEK293 (reverse transfection with plasmid)
Briefly: YFP-halide influx assay for the CFTR-G551D mutation. The format is cell-based. To be noted: HEK293 cells, forskolin 10.67 μM. Put shortly:
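HEK293 cells reverse-transfected with CFTR G551D and YFP H148Q/I152L/F47L halide sensor, expressed 24 h at 37 °C. Iodide-induced fluorescence quench recorded 7 s after I− injection; response = 1−F/F0, with EC50 from plot against compound concentration.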

Each structure is given as a SMILES string.

T2 sequence (P13569 whole entry G551D): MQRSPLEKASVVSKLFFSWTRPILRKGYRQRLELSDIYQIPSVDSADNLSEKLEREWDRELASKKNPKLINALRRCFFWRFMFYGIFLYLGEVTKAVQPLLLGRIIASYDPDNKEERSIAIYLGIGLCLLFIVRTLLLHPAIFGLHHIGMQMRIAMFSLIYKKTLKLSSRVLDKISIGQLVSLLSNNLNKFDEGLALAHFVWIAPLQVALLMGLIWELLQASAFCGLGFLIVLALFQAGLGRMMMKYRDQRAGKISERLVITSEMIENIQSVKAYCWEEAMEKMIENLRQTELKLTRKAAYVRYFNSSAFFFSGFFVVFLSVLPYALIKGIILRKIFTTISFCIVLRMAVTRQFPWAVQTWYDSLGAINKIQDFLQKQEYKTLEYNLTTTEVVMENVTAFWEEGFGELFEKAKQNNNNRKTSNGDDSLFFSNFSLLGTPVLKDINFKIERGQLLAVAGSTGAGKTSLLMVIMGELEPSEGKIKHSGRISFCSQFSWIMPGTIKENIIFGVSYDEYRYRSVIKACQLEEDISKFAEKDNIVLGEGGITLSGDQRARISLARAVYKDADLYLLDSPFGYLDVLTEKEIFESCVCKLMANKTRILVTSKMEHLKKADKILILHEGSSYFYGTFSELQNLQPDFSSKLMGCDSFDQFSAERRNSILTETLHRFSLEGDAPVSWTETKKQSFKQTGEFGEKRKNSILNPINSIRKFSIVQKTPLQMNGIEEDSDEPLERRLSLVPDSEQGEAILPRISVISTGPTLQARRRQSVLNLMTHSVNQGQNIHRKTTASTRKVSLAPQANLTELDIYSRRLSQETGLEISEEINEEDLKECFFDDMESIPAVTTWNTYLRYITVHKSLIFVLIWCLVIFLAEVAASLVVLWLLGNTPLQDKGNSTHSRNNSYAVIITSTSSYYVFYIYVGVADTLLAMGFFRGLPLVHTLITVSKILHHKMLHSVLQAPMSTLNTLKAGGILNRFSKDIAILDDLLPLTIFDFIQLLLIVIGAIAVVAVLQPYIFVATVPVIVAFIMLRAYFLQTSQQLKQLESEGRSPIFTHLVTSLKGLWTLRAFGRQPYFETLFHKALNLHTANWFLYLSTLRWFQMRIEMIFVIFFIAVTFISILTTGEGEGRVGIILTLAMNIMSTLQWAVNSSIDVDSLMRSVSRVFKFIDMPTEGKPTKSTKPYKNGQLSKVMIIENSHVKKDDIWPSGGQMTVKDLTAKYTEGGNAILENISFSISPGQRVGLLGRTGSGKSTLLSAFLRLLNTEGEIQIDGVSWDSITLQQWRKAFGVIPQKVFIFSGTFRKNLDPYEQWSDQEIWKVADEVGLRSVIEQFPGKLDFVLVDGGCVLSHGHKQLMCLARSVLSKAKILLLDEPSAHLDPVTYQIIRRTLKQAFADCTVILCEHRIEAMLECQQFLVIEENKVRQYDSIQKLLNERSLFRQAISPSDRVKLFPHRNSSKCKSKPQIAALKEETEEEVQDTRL
T1 sequence (P13569 with tags, fused parts or gaps DEL508-508): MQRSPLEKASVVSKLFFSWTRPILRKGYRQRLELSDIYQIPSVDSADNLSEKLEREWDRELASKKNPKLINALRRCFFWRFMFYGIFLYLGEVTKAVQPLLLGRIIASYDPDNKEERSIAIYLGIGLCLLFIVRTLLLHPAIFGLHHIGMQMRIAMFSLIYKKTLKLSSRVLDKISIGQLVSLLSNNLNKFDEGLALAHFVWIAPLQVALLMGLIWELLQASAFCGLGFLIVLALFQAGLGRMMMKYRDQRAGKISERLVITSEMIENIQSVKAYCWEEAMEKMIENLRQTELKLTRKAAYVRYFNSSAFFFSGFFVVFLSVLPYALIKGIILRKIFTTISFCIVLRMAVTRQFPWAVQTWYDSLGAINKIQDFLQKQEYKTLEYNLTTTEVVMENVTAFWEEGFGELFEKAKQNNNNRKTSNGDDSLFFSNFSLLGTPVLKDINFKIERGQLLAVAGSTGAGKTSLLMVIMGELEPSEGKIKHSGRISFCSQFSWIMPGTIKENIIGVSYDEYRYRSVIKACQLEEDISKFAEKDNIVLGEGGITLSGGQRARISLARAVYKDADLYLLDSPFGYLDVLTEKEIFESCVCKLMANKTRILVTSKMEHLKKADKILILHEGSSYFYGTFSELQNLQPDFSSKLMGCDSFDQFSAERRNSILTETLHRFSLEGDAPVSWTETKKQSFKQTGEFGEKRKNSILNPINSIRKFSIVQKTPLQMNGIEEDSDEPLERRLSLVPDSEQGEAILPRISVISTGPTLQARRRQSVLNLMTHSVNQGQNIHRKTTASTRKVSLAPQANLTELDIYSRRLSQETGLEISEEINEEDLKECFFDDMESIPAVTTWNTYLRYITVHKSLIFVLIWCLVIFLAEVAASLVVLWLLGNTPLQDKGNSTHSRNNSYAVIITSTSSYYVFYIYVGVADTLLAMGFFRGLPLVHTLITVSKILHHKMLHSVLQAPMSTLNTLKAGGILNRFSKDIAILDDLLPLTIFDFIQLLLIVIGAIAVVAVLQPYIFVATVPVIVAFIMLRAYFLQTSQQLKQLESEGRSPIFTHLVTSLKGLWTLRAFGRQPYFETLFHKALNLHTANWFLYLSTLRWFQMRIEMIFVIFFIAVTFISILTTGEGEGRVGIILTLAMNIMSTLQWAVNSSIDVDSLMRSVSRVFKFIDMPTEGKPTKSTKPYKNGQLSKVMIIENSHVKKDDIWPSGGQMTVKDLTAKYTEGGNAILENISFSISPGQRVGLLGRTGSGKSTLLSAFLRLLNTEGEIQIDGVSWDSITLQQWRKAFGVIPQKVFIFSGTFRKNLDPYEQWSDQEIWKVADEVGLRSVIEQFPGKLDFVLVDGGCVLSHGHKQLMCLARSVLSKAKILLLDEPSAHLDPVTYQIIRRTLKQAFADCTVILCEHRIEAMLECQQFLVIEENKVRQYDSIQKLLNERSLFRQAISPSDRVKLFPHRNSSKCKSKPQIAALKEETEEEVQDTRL

One may read the EC50 as the midpoint of the concentration-response curve. Higher therefore signals weaker potency. Take `CC(CO)C(=O)Nc1sc(S(=O)(=O)c2ccc(OC(F)(F)F)cn2)cc1C(N)=O` (stereo not drawn) [Compound 392, 2-[(3-hydroxy-2-methyl-propanoyl)amino]-5-[[5-(trifluoromethoxy)-2-pyridyl]sulfonyl] thiophene-3-carboxamide]: the results for the EC50 in experiment [1] and in experiment [2] were 84.6 nM and 1600 nM, respectively.

For `CC(C)(O)C(=O)Nc1sc(S(=O)(=O)c2ccc(C(F)F)cn2)cc1C(N)=O` [Compound 395, 5-[[5-(difluoromethyl)-2-pyridyl]sulfonyl]-2-[(2-hydroxy-2-methyl-propanoyl)amino] thiophene-3-carboxamide], the concentration for a half-maximal effect (EC50) was determined as 294 nM in experiment [1] and 1860 nM in experiment [2].

`CC(O)C(=O)Nc1sc(S(=O)(=O)c2ccc(C(F)(F)F)cn2)cc1C(N)=O` (stereo not drawn) [Compound 396, 2-(2-hydroxypropanoylamino)-5-[[5-(trifluoromethyl)-2-pyridyl]sulfonyl] thiophene-3-carboxamide]: the values for the EC50 in experiment [1] and in experiment [2] were 110 nM and 1350 nM, respectively.

With `CC(O)C(=O)Nc1sc(S(=O)(=O)c2ccc(C(F)(F)F)cc2)cc1C(N)=O` (stereo not drawn) [Compound 398, 2-(2-hydroxypropanoylamino)-5-[4-(trifluoromethyl)phenyl]sulfonyl-thiophene-3-carboxamide], the half-maximal effective concentration (EC50) in experiment [1] stood at 22.8 nM; in experiment [2], 515 nM.

Turning to `Cc1cc(C#N)cc(S(=O)(=O)c2cc(C(N)=O)c(NC(=O)C(C)(C)O)s2)c1` [Compound 399, 5-(3-cyano-5-methyl-phenyl)sulfonyl-2-[(2-hydroxy-2-methyl-propanoyl)amino] thiophene-3-carboxamide], the concentration giving a half-maximal response (EC50) in experiment [1] amounted to 56.6 nM; in experiment [2], 1900 nM.

Take `COc1ccc(S(=O)(=O)c2cc(C(N)=O)c(NC(=O)C(C)(C)O)s2)cc1` [Compound 400, 2-[(2-hydroxy-2-methyl-propanoyl)amino]-5-(4-methoxyphenyl)sulfonyl-thiophene-3-carboxamide]: the figures for the EC50 in experiment [1] and in experiment [2] were 56.7 nM and 1950 nM, respectively.

For `CC(O)C(=O)Nc1sc(S(=O)(=O)c2ccc(OC(F)F)cc2)cc1C(N)=O` (stereo not drawn) [Compound 403, 5-[4-(difluoromethoxy)phenyl] sulfonyl-2-(2-hydroxypropanoylamino) thiophene-3-carboxamide], the half-maximal effective concentration (EC50) in experiment [1] amounted to 27.5 nM; in experiment [2] it was 1610 nM.

Regarding `CC(C)(O)C(=O)Nc1sc(S(=O)(=O)c2ccc(C#N)cc2F)cc1C(N)=O` [Compound 406, 5-(4-cyano-2-fluoro-phenyl)sulfonyl-2-[(2-hydroxy-2-methyl-propanoyl)amino] thiophene-3-carboxamide], the EC50 in experiment [1] is 56.1 nM; in experiment [2] it was 1310 nM.

Turning to `CC(C)(O)C(=O)Nc1sc(S(=O)(=O)c2cccc(C#N)c2)cc1C(N)=O` [Compound 409, 5-(3-cyanophenyl)sulfonyl-2-[(2-hydroxy-2-methyl-propanoyl)amino] thiophene-3-carboxamide], the half-maximal effective concentration (EC50) amounted to 47.7 nM in experiment [1] and 2370 nM in experiment [2].

As to `COc1c(Cl)ncnc1S(=O)(=O)c1cc(C(N)=O)c(NC(=O)C(C)(C)O)s1` [Compound 414, 5-(6-chloro-5-methoxy-pyrimidin-4-yl)sulfonyl-2-[(2-hydroxy-2-methyl-propanoyl)amino] thiophene-3-carboxamide], the values for the 50% effective concentration (EC50) in experiment [1] and in experiment [2] (class symbol) were 111 nM and above 1000 nM, respectively.

With `COc1cnc(C(F)(F)F)nc1S(=O)(=O)c1cc(C(N)=O)c(NC(=O)C(C)(C)O)s1` [Compound 415, 2-[(2-hydroxy-2-methyl-propanoyl)amino]-5-[5-methoxy-2-(trifluoromethyl)pyrimidin-4-yl]sulfonyl-thiophene-3-carboxamide], the half-maximal effective concentration (EC50) is 305 nM in experiment [1] and above 1000 nM in experiment [2] (class symbol).

As for `CC(C)(O)C(=O)Nc1sc(S(=O)(=O)c2nccnc2C(F)(F)F)cc1C(N)=O` [Compound 417, 2-[(2-hydroxy-2-methyl-propanoyl)amino]-5-[3-(trifluoromethyl)pyrazin-2-yl]sulfonyl-thiophene-3-carboxamide], the half-maximal effective concentration (EC50) in experiment [1] is 147 nM; in experiment [2], 6660 nM.

Consider `CC(C)(O)C(=O)Nc1sc(S(=O)(=O)c2cc(CC#N)cc(OC(F)(F)F)c2)cc1C(N)=O` [Compound 428, 5-[3-(cyanomethyl)-5-(trifluoromethoxy)phenyl] sulfonyl-2-[(2-hydroxy-2-methyl-propanoyl)amino] thiophene-3-carboxamide], for which the half-maximal effective concentration (EC50) in experiment [1] turned out to be 76.1 nM; in experiment [2], 3330 nM.

In the case of `CC(C)(O)C(=O)Nc1sc(S(=O)(=O)c2ccc(C(F)(F)F)nn2)cc1C(N)=O` [Compound 431, 2-[(2-hydroxy-2-methyl-propanoyl)amino]-5-[6-(trifluoromethyl)pyridazin-3-yl]sulfonyl-thiophene-3-carboxamide], the concentration giving a half-maximal response (EC50) in experiment [1] amounted to 150 nM; in experiment [2] it was 2220 nM.

Turning to `CN1COCc2cc(S(=O)(=O)c3cc(C(N)=O)c(NC(=O)C(C)(C)O)s3)ccc21` [Compound 434, 2-[(2-hdyroxy-2-methyl-propanoyl)amino]-5-[(1-methyl-2,4-dihydro-3,1-benzoxazin-6-yl)sulfonyl] thiophene-3-carboxamide], the concentration giving a half-maximal response (EC50) was found to be 227 nM in experiment [1] and 1930 nM in experiment [2].

With `CC(C)(O)C(=O)Nc1sc(S(=O)(=O)c2cccnc2C(F)(F)F)cc1C(N)=O` [Compound 436, 2-[(2-hydroxy-2-methyl-propanoyl)amino]-5-[[2-(trifluoromethyl)-3-pyridyl]sulfonyl] thiophene-3-carboxamide], the EC50 came to 32.1 nM in experiment [1] and 1730 nM in experiment [2].

As to `CC(C)(O)C(=O)Nc1sc(S(=O)(=O)c2nc(CO)ccc2C(F)(F)F)cc1C(N)=O` [Compound 438, 2-[(2-hydroxy-2-methyl-propanoyl)amino]-5-[[6-(hydroxymethyl)-3-(trifluoromethyl)-2-pyridyl]sulfonyl] thiophene-3-carboxamide], the EC50 is 216 nM in experiment [1] and above 1000 nM in experiment [2] (class symbol).

Regarding `Cc1c(S(=O)(=O)c2ccc(C(F)(F)F)cc2F)sc(NC(=O)C(C)(C)O)c1C(N)=O` [Compound 439, 5-[2-fluoro-4-(trifluoromethyl)phenyl]sulfonyl-2-[(2-hydroxy-2-methyl-propanoyl)amino]-4-methyl-thiophene-3-carboxamide], the EC50 amounted to 7.16 nM in experiment [1] and 6660 nM in experiment [2].

Regarding `CC(C)(O)C(=O)Nc1sc(S(=O)(=O)c2cc(Cl)cnc2C(F)(F)F)cc1C(N)=O` [Compound 440, 5-[[5-chloro-2-(trifluoromethyl)-3-pyridyl]sulfonyl]-2-[(2-hydroxy-2-methyl-propanoyl)amino] thiophene-3-carboxamide], the figures for the half-maximal effective concentration (EC50) in experiment [1] and in experiment [2] were 13 nM and 2190 nM, respectively.

Turning to `NC(=O)c1cc(S(=O)(=O)c2ccc(OC(F)(F)F)cc2)sc1NC(=O)C1CCCO1` (stereo not drawn) [Compound 442, N-[3-carbamoyl-5-[4-(trifluoromethoxy)phenyl]sulfonyl-2-thienyl] tetrahydrofuran-2-carboxamide], the EC50 in experiment [1] came out at 90.9 nM; in experiment [2], 3330 nM.

As for `NC(=O)c1cc(S(=O)(=O)c2ccc(OC(F)(F)F)cc2)sc1NC(=O)C1CCOC1` (stereo not drawn) [Compound 443, N-[3-carbamoyl-5-[4-(trifluoromethoxy)phenyl]sulfonyl-2-thienyl] tetrahydrofuran-3-carboxamide], the EC50 in experiment [1] was found to be 107 nM; in experiment [2], 3330 nM.
